Measured values from patent US4383113A, “Agricultural sulfonamides” (E. I. Du Pont de Nemours and Company, priority 1981, dated 1983).

What was measured:
alfalfa [1] = test: Test D pre-emergence on soil; format: in vivo; conditions: 1/8 kg/ha
Excerpt: (§1) The high herbicidal activity of one of the compounds from within the scope of the invention is evident from the results obtained in this test. The experiment concerned pre-emergence applications on soil. The containers used were 25 cm diameter plastic pots filled with Fallsington silt loam. One set of pots was planted to weeds the seeds of which were uniformly mixed with the top 1.2 cm layer of soil. The species selected were: johnsongrass (Sorghum halepense), barnyardgrass (Echinochloa crusgalli), crabgrass (Digitaria sanguinalis), giant foxtail (Setaria faberii), velvetleaf (Abutilon theophrasti), jimsonweed (Datura stramonium), mustard (Brassica arvensis) and pigweed (Amaranthus retroflexus). Another set of pots was planted to the following crops with from one to four species per pot: corn (planting depth 3.7 cm), cotton, soybeans, sunflower, Clinton oats, wheat, Black Valentine beans, rice, sorghum, peas, flax and peanuts (all at 2.5 cm depth), cucumbers, cabbage, alfalfa, safflower, sugarbeets, tomato, spinach, barley and Kentucky bluegrass (all at 1.2 cm depth). Immediately after planting, the test chemical was applied to the soil surfaces dissolved in a non-phytotoxic solvent. One pot from the weed phase and one of each of the crop species were left untreated for the purpose of comparison. The treated and untreated pots were promptly watered with approximately 4 mm of simulated rainfall and then held in a greenhouse for several weeds. Visual weed and crop response ratings were made 28 days after treatment utilizing the rating system as described above for test procedure A. The data are given in Table XV.

cabbage = test: Test D pre-emergence on soil; format: in vivo; conditions: 1/8 kg/ha
Excerpt: as §1

corn = test: Test D pre-emergence on soil; format: in vivo; conditions: 1/8 kg/ha
Excerpt: as §1

grasses [2] = test: Test D pre-emergence on soil; format: in vivo; conditions: 1/64 kg/ha
Excerpt: as §1

sorghum = test: Test D pre-emergence on soil; format: in vivo; conditions: 1/8 kg/ha
Excerpt: as §1

spinach = test: Test D pre-emergence on soil; format: in vivo; conditions: 1/8 kg/ha
Excerpt: as §1

wheat = test: Test D pre-emergence on soil; format: in vivo; conditions: 1/8 kg/ha
Excerpt: as §1

sugarbeet = test: Test D pre-emergence on soil; format: in vivo, sugarbeets; conditions: 1/8 kg/ha
Excerpt: as §1, with “The treated and untreated pots were promptly watered with approximately 4 mm of simulated rainfall and then held in a greenhouse for several weeds. Visual weed and crop response ratings were made 28 days after treatment utilizing the rating system as described above for test procedure A. The data are given in Table XV.” left out

pea = test: Test D pre-emergence on soil; format: in vivo, peas; conditions: 1/8 kg/ha
Excerpt: as §1, with “The treated and untreated pots were promptly watered with approximately 4 mm of simulated rainfall and then held in a greenhouse for several weeds. Visual weed and crop response ratings were made 28 days after treatment utilizing the rating system as described above for test procedure A. The data are given in Table XV.” left out

Ky. bluegrass = test: Test D pre-emergence on soil; format: in vivo, Kentucky bluegrass; conditions: 1/8 kg/ha
Excerpt: as §1, with “The treated and untreated pots were promptly watered with approximately 4 mm of simulated rainfall and then held in a greenhouse for several weeds. Visual weed and crop response ratings were made 28 days after treatment utilizing the rating system as described above for test procedure A. The data are given in Table XV.” left out

broadleaves = test: Test K field post-emergence; format: in vivo; conditions: 16 weeks
Procedure: (§2) The response of a number of noxious weed species to post-emergence applications of the same compound as used in Test J was studied in another field test. At the time of treatment, one month after mowing, the mixed vegetation was approximately 15 cm tall. The chemical was applied in water containing 0.2% of Surfactant WK® at an overall volume of 500 l/ha. Each treatment was replicated three times. Approximately 5 cm of rainfall was recorded 4 days after treatment and an additional 37 cm fell before weed control ratings were made 16 weeks after treatment.

broomsedge = test: Test K field post-emergence; format: in vivo; conditions: 16 weeks
Procedure: as §2

dewberry = test: Test K field post-emergence; format: in vivo; conditions: 16 weeks
Procedure: as §2

golden rod = test: Test K field post-emergence; format: in vivo; conditions: 16 weeks
Procedure: as §2

grasses [3] = test: Test K field post-emergence; format: in vivo; conditions: 16 weeks
Procedure: as §2

[4] = system: mixed vegetation, overall; test: Test K field post-emergence; format: in vivo; conditions: 16 weeks
Procedure: as §2

poison ivy = test: Test K field post-emergence; format: in vivo; conditions: 16 weeks
Procedure: as §2

purpletop = test: Test K field post-emergence; format: in vivo; conditions: 16 weeks
Procedure: as §2

mustard = test: Test E pre-emergence; format: in vivo, Brassica arvensis
Excerpt: (§3) The containers used were 25 cm diameter plastic pots filled with fertilized and limed Fallsington silt loam. Plantings of the following weed species were made twice, at a 10-day interval: mustard (Brassica arvensis), cocklebur (Xanthium spp.), morningglory (Ipomoea hederacea), cassia (Cassia tora), velvetleaf (Abutilon theophrasti), alfalfa (used as an indicator species), kochia (Kochia scoparia), sesbania (Sesbania exaltata), Russian thistle (Salsola kali), jimsonweed (Datura stramonium),and nutsedge (Cyperus rotundus). In addition, wheat and barley were planted in separate 15 cm diameter plastic pots filled with the same soil at the time of the early planting only. All plantings were treated with the test chemicals dissolved in a non-phytotoxic solvent immediately following completion of the second planting operation. At this time, the wheat was around 15-17.5 cm tall and the barley 12.5 to 15 cm tall, both in the 2-leaf stage of growth. The weed species of the earliest planting date were from 2.5 to 12.5 cm tall. The rates of application selected were 0.004, 0.007, 0.015 and 0.030 kg/ha for the weed phase and 0.12, 0.25 and 0.50 kg/ha for wheat and barley. The post-emergence part of this test was visually rated for plant response 21 days after treatment, and the pre-emergence part 28 days after treatment.

morningglory = test: Test E pre-emergence; format: in vivo, Ipomoea hederacea
Excerpt: as §3

alfalfa [5] = test: Test E pre-emergence; format: in vivo
Excerpt: as §3

sesbania = test: Test E pre-emergence; format: in vivo, Sesbania exaltata; conditions: 1/64 kg/ha
Excerpt: as §3

kochia = test: Test E pre-emergence; format: in vivo, Kochia scoparia
Excerpt: as §3

Russian thistle = test: Test E pre-emergence; format: in vivo, Salsola kali
Excerpt: as §3

nutsedge = test: Test E pre-emergence; format: in vivo, Cyperus rotundus
Excerpt: as §3

velvetleaf = test: Test E pre-emergence; format: in vivo, Abutilon theophrasti
Excerpt: as §3

milkweed vine = test: Test I perennial foliage spray; format: in vivo, Morrenia odorata
Excerpt: (§4) Five-inch in diameter plastic pots were filled with a 50-50 mixture of Fallsington silt loam soil and sand and seeds of the following planted (one plant species per pot): milkweed vine (Morrenia odorata), plantain (Plantago spp.), burdock (Arctium minus), field bindweed (Convolvulus arvensis), dandelion (Taraxacum officinale), horsenettle (Solanum carolinense), bermudagrass (Cynodon dactylon), quackgrass (Agropyron repens), dallisgrass (Paspalum dilatatum) and johnsongrass (Sorghum halepense). The pots were placed in the greenhouse and the plants grown for several weeks.
(§5) The compound evaluated was diluted with a non-phytotoxic solvent and sprayed on the plant foliage. Untreated and solvent controls were included for comparison. One and eight weeks after treatment, a visual rating of the compound's effects on plant growth were made.

plantain = test: Test I perennial foliage spray; format: in vivo, Plantago spp.
Excerpt: as §4, §5

burdock = test: Test I perennial foliage spray; format: in vivo, Arctium minus
Excerpt: as §4, §5

field bindweed = test: Test I perennial foliage spray; format: in vivo, Convolvulus arvensis
Excerpt: as §4, §5

dandelion = test: Test I perennial foliage spray; format: in vivo, Taraxacum officinale
Excerpt: as §4, §5

horsenettle = test: Test I perennial foliage spray; format: in vivo, Solanum carolinense
Excerpt: as §4, §5

bermudagrass = test: Test I perennial foliage spray; format: in vivo, Cynodon dactylon; conditions: 1 week
Excerpt: as §4, §5

quackgrass = test: Test I perennial foliage spray; format: in vivo, Agropyron repens
Excerpt: as §4, §5

dallisgrass = test: Test I perennial foliage spray; format: in vivo, Paspalum dilatatum
Excerpt: as §4, §5

johnsongrass = test: Test I perennial foliage spray; format: in vivo, Sorghum halepense
Excerpt: as §4, §5

COC(=O)c1ccccc1S(=O)(=O)NC(=O)Nc1nc(OC)cc(OC)n1 [drawing 586]
response rating (alfalfa [1]): 10C | response rating (cabbage): 10C | response rating (corn): 10C | response rating (grasses [2]): 6G | response rating (sorghum): 10C | response rating (spinach): 10C | response rating (wheat): 10C | response rating (sugarbeet): 10C | response rating (pea): 10C | response rating (Ky. bluegrass): 10C

COC(=O)c1ccccc1S(=O)(=O)NC(=O)Nc1nc(C)cc(C)n1 [drawing 613]
mean % weed control (broadleaves; 1.0 kg/ha): 96% | mean % weed control (broadleaves; 2.0 kg/ha): 98% | mean % weed control (broadleaves; .5 kg/ha): 91% | mean % weed control (broomsedge; 1.0 kg/ha): 73% | mean % weed control (broomsedge; 2.0 kg/ha): 86% | mean % weed control (broomsedge; .5 kg/ha): 71% | mean % weed control (dewberry; 1.0 kg/ha): 100% | mean % weed control (dewberry; 2.0 kg/ha): 100% | mean % weed control (dewberry; .5 kg/ha): 97% | mean % weed control (golden rod; 1.0 kg/ha): 100% | mean % weed control (golden rod; 2.0 kg/ha): 100% | mean % weed control (golden rod; .5 kg/ha): 100% | mean % weed control (grasses [3]; 1.0 kg/ha): 84% | mean % weed control (grasses [3]; 2.0 kg/ha): 93% | mean % weed control (grasses [3]; .5 kg/ha): 81% | mean % weed control ([4]; 1.0 kg/ha): 90% | mean % weed control ([4]; 2.0 kg/ha): 94% | mean % weed control ([4]; .5 kg/ha): 81% | mean % weed control (poison ivy; 1.0 kg/ha): 85% | mean % weed control (poison ivy; 2.0 kg/ha): 95% | mean % weed control (poison ivy; .5 kg/ha): 67% | mean % weed control (purpletop; 1.0 kg/ha): 80% | mean % weed control (purpletop; 2.0 kg/ha): 92% | mean % weed control (purpletop; .5 kg/ha): 73%

COc1nc(NC(=O)NS(=O)(=O)c2ccccc2C(=O)OC(C)C)nc(OC)n1 [drawing 587]
response rating (mustard; 1/32 kg/ha): 10C | response rating (mustard; 1/64 kg/ha): 10C | response rating (mustard; 1/128 kg/ha): 10C | response rating (morningglory; 1/32 kg/ha): 8G | response rating (alfalfa [5]; 1/64 kg/ha): 5G | response rating (alfalfa [5]; 1/256 kg/ha): 5G | response rating (sesbania): 8G | response rating (kochia; 1/32 kg/ha): 10C | response rating (kochia; 1/64 kg/ha): 10C | response rating (kochia; 1/128 kg/ha): 10C | response rating (Russian thistle; 1/32 kg/ha): 9C | response rating (Russian thistle; 1/64 kg/ha): 7C | response rating (Russian thistle; 1/128 kg/ha): 7C | response rating (Russian thistle; 1/256 kg/ha): 5C | response rating (nutsedge; 1/64 kg/ha): 9G | response rating (nutsedge; 1/128 kg/ha): 8G | response rating (nutsedge; 1/256 kg/ha): 7G

COc1nc(C)nc(NC(=O)NS(=O)(=O)c2ccccc2C(=O)OC(C)C)n1 [drawing 588]
response rating (mustard; 1/32 kg/ha): 10C | response rating (mustard; 1/64 kg/ha): 10C | response rating (mustard; 1/128 kg/ha): 10C | response rating (mustard; 1/256 kg/ha): 10C | response rating (morningglory; 1/32 kg/ha): 10C | response rating (morningglory; 1/64 kg/ha): 10C | response rating (velvetleaf; 1/32 kg/ha): 10C | response rating (velvetleaf; 1/64 kg/ha): 10C | response rating (alfalfa [5]; 1/256 kg/ha): 7G | response rating (kochia; 1/32 kg/ha): 10C | response rating (kochia; 1/64 kg/ha): 10C | response rating (kochia; 1/128 kg/ha): 10C | response rating (Russian thistle; 1/32 kg/ha): 10C | response rating (Russian thistle; 1/64 kg/ha): 10C | response rating (Russian thistle; 1/128 kg/ha): 8C | response rating (Russian thistle; 1/256 kg/ha): 7C | response rating (nutsedge; 1/32 kg/ha): 8G | response rating (nutsedge; 1/64 kg/ha): 8G

COC(=O)c1ccccc1S(=O)(=O)NC(=O)Nc1nc(C)cc(C)n1 [drawing 611]
plant response rating (milkweed vine; 1 week, 1/4 kg/ha): 0 | plant response rating (milkweed vine; 1 week, 1/8 kg/ha): 0 | plant response rating (milkweed vine; 8 weeks, 1/4 kg/ha): 10C | plant response rating (milkweed vine; 8 weeks, 1/8 kg/ha): 10C | plant response rating (plantain; 1 week, 1/4 kg/ha): 0 | plant response rating (plantain; 1 week, 1/8 kg/ha): 0 | plant response rating (plantain; 8 weeks, 1/4 kg/ha): 10C | plant response rating (plantain; 8 weeks, 1/8 kg/ha): 10C | plant response rating (burdock; 1 week, 1/4 kg/ha): 0 | plant response rating (burdock; 1 week, 1/8 kg/ha): 0 | plant response rating (burdock; 8 weeks, 1/4 kg/ha): 10C | plant response rating (burdock; 8 weeks, 1/8 kg/ha): 4C | plant response rating (field bindweed; 1 week, 1/4 kg/ha): 2C | plant response rating (field bindweed; 1 week, 1/8 kg/ha): 0 | plant response rating (field bindweed; 8 weeks, 1/4 kg/ha): 8C | plant response rating (field bindweed; 8 weeks, 1/8 kg/ha): 7C | plant response rating (dandelion; 1 week, 1/4 kg/ha): 0 | plant response rating (dandelion; 1 week, 1/8 kg/ha): 0 | plant response rating (dandelion; 8 weeks, 1/4 kg/ha): 10C | plant response rating (dandelion; 8 weeks, 1/8 kg/ha): 10C | plant response rating (horsenettle; 1 week, 1/4 kg/ha): 1C | plant response rating (horsenettle; 1 week, 1/8 kg/ha): 0 | plant response rating (horsenettle; 8 weeks, 1/4 kg/ha): 10C | plant response rating (horsenettle; 8 weeks, 1/8 kg/ha): 5C | plant response rating (bermudagrass; 1/4 kg/ha): 6C | plant response rating (bermudagrass; 1/8 kg/ha): 5C | plant response rating (quackgrass; 1 week, 1/4 kg/ha): 7C | plant response rating (quackgrass; 1 week, 1/8 kg/ha): 6C | plant response rating (quackgrass; 8 weeks, 1/4 kg/ha): 10C | plant response rating (quackgrass; 8 weeks, 1/8 kg/ha): 10C | plant response rating (dallisgrass; 1 week, 1/4 kg/ha): 6C | plant response rating (dallisgrass; 1 week, 1/8 kg/ha): 6C | plant response rating (dallisgrass; 8 weeks, 1/4 kg/ha): 10C | plant response rating (johnsongrass; 1 week, 1/4 kg/ha): 9C | plant response rating (johnsongrass; 1 week, 1/8 kg/ha): 8C | plant response rating (johnsongrass; 8 weeks, 1/4 kg/ha): 10C | plant response rating (johnsongrass; 8 weeks, 1/8 kg/ha): 10C
